Laboratory results taken from BindingDB's records for doi:10.1021/jm00163a035 (Sri International, 1990).

Target: T1, Dihydrofolate reductase (Homo sapiens, UniProt P00374)
T1 sequence (P00374 whole entry): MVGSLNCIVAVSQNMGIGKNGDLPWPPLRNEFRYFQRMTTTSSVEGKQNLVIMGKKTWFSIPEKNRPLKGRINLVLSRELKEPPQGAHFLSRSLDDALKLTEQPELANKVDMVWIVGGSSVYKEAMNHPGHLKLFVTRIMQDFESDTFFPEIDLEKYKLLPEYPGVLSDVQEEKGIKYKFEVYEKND
Experiment: ChEBML_54117
Text: Inhibitory activity towards dihydrofolate reductase derived from human manca leukemia cells

CCC(Cc1ccc(C(=O)NC(CCC(=O)O)C(=O)O)cc1)c1cnc2nc(N)nc(N)c2n1 (stereo unspecified)
IC50: 70 nM
